Here are results for 104 compounds from PubChem BioAssay AID1996.

≈ marks a conversion by molar mass, not a printed value.

The conditions of this series: buffer; pH 7.4; 200.0 µM.
Usually solubility (kinetic) stands for the concentration staying in solution when a stock, usually in DMSO, is diluted into the medium. For the compound `CNc1ccc(/C=C2\CSc3ccccc3C2=O)cc1[N+](=O)[O-]`, the kinetic solubility is 3 µg/mL (≈ 9.19 µM). Next, `CCCSc1nsc(NC(=O)c2cccnc2OCC)n1`: 0.5 µg/mL (≈ 1.54 µM). The same measure for `Cc1ccc(NC(=O)C(C)OC(=O)/C=C/c2ccccc2)cc1` (centres undefined): 4 µg/mL (≈ 12.9 µM); for `COC(=O)c1ccc(C2C(C#N)=C(N)Oc3cc(N)ccc32)cc1` (centres undefined): 11.2 µg/mL (≈ 34.9 µM). Regarding `COc1ccc(CCNC(=O)C(=O)c2c(C)[nH]c3ccccc23)cc1`, the kinetic solubility amounted to 0.5 µg/mL (≈ 1.49 µM). Next, `CN(Cc1c(F)cccc1Cl)C(=O)c1ccc(NC(=O)CC2SC(N3CCCCC3)=NC2=O)cc1` (centres undefined): 53.2 µg/mL (≈ 103 µM); `O=C(NCc1csc(-c2cccs2)n1)Nc1cccc(Cl)c1`: 0.3 µg/mL (≈ 0.857 µM).

As for `Fc1ccccc1CNc1ncnc2sccc12`, the kinetic solubility turned out to be 9.9 µg/mL (≈ 38.2 µM).

In turn, `Cc1ccc(S(=O)(=O)NC(C)CCc2ccccc2)cc1C(N)=O` (centres undefined) came in with a kinetic solubility greater than 52 µg/mL.

Take `CC1CCCCC1NC(=O)COc1ccc(C#N)cc1` (centres undefined): the solubility (kinetic) is greater than 40.9 µg/mL. Next, `O=c1c(NCCc2ccc(Cl)cc2)c(-c2ccccc2)c1=O`: 2.6 µg/mL (≈ 8.34 µM); `CC(=O)c1ccc(S(=O)(=O)N2CCC3(CC2)OCCO3)cc1`: greater than 48.8 µg/mL; `COc1ccc(CNC(=O)CN2C(=O)NC3(CCCCCC3)C2=O)cc1`: greater than 53.9 µg/mL. The same measure for `O=C(NC1=NCCS1)c1ccccc1Cl`: greater than 36.1 µg/mL. Next, `CC(C)CC(NC(=O)OC(C)(C)C)C(=O)O.O` (centres undefined): greater than 37.4 µg/mL; `COC(=O)c1ccccc1NC(=O)c1cc(C)no1`: 1.1 µg/mL (≈ 4.23 µM). With `CCCCn1c(=O)c(C(=O)Nc2ccc(C)cn2)c(O)c2ccccc21`, the solubility (kinetic) was less than 0.3 µg/mL. For the compound `O=C(CN1C(=O)c2ccc([N+](=O)[O-])cc2C1=O)Nc1nccs1`, the kinetic solubility was 26.2 µg/mL (≈ 78.8 µM).

With `O=C(Nc1nonc1-c1ccc(Cl)cc1)c1ccccc1`, the kinetic solubility came out at 0.7 µg/mL (≈ 2.34 µM). Turning to `CC(=O)c1cccc(NC(=O)CN2C(=O)c3ccccc3C2=O)c1`, the solubility (kinetic) came to 13.9 µg/mL (≈ 43.1 µM). As to `COc1ccc(C(=O)NC(=S)N2CC(C)OC(C)C2)cc1OC` (centres undefined), the kinetic solubility was greater than 50.8 µg/mL.

In turn, `CC(C)N1CC(C(=O)Nc2ccc(C#N)cc2)CC1=O` (centres undefined) came in with a solubility (kinetic) greater than 40.7 µg/mL.

As to `COc1cc(OC)cc(C(=O)NCC(C)NC(=O)c2cc(OC)cc(OC)c2)c1` (centres undefined), the solubility (kinetic) is 39.6 µg/mL (≈ 98.4 µM). The same measure for `COC(=O)C1=C(C)NC(=O)NC1c1ccco1` (centres undefined): 27.8 µg/mL (≈ 118 µM). With `CCN(CC)S(=O)(=O)c1ccc(NC(=O)c2cc(=O)[nH]c3ccccc23)cc1`, the solubility (kinetic) was 3.9 µg/mL (≈ 9.76 µM). Compound `O=C(O)c1ccccc1NC(=O)N1CCOCC1` gave a solubility (kinetic) greater than 37.5 µg/mL. For `O=C(CC(=O)NCCc1ccccc1)NCCc1ccccc1`, the kinetic solubility is greater than 46.6 µg/mL.

As for `N#Cc1ccccc1OCC(=O)Nc1ccc(S(=O)(=O)N2CCOCC2)cc1`, the solubility (kinetic) came out at 6.9 µg/mL (≈ 17.2 µM). Next, `CCN1C(=O)c2ccc(C(=O)NCc3ccco3)cc2C1=O`: greater than 44.7 µg/mL. In the case of `O=C(NC(=S)NCc1ccccc1)c1cccc(Cl)c1`, the kinetic solubility was less than 0.3 µg/mL. Consider `COc1ccc(CNC(=O)COC(=O)c2cccs2)cc1`, for which the solubility (kinetic) came out at 29.1 µg/mL (≈ 95.3 µM). For `Cc1cc(C(=O)Nc2ccc(F)cc2)c2ccccc2n1`, the solubility (kinetic) was less than 0.3 µg/mL.

As for `CCNC(=O)CC1C(=O)N(CC)C(=S)N1NC(=O)c1cccnc1` (centres undefined), the kinetic solubility was greater than 52.4 µg/mL. Next, `Cc1ccc(C(C)NC(=O)C2CCCC2)c(C)c1` (centres undefined): 34.2 µg/mL (≈ 139 µM); `COc1ccccc1OCCn1c(=O)n(C)c2ccccc21`: 42.2 µg/mL (≈ 141 µM). The compound `O=C(Nc1sc2c(c1C(=O)O)CCCC2)c1cccc(Cl)c1` had a solubility (kinetic) of 45.5 µg/mL (≈ 135 µM). This solubility kinetic and that of the compound before are within 1.5-fold of each other. The same measure for `CCCC(=O)Nc1ccc(C(=O)COC(=O)C2CC2)cc1`: 15.3 µg/mL (≈ 52.9 µM); for `O=C(N/N=C/c1ccncc1)NC1CCCCC1`: greater than 36.9 µg/mL; for `Cc1ccc2c(CN3CCN(Cc4ccccc4)CC3)cc(=O)oc2c1`: 49.4 µg/mL (≈ 142 µM). `CC(=O)Oc1ccc(C(=O)Nc2ccc3c(c2)OCCO3)cc1` returned a kinetic solubility of 38.9 µg/mL (≈ 124 µM). Next, `O=C(Cc1ccc(F)cc1)NC1CCSC1=O` (centres undefined): greater than 38 µg/mL; `CSC1=NCCN1C(=O)c1c(-c2c(F)cccc2Cl)noc1C`: greater than 53.1 µg/mL.

In turn, `O=C(NCCCNC(=O)c1cnccn1)c1cccc(F)c1` had a kinetic solubility of 40.2 µg/mL (≈ 133 µM). For `O=C(Nc1cccnc1Cl)c1cccc(S(=O)(=O)N2CCOCC2)c1`, the solubility (kinetic) is greater than 57.3 µg/mL.

As for `N#CCCN(Cc1ccccc1)C(=O)c1cccs1`, the kinetic solubility was greater than 40.6 µg/mL. Next, `CCOc1ccc(C(=O)CCC(=O)N2CCN(c3ccc(O)cc3)CC2)cc1`: 16.6 µg/mL (≈ 43.4 µM). The same measure for `O=C1CSC(c2cccnc2)N1CC1CC1` (centres undefined): greater than 35.1 µg/mL; for `COC(=O)NCN1C(=O)C2C3C=CC(C3)C2C1=O` (centres undefined): 34.4 µg/mL (≈ 137 µM); for `CCCCCn1cc(C(=O)C(=O)N2CCOCC2)c2ccccc21`: 46.8 µg/mL (≈ 143 µM). The same measure for `CCOC(=O)c1sc(/N=C/c2c(O)ccc3ccccc23)cc1C`: 9.8 µg/mL (≈ 28.9 µM); for `Cc1c(C(=O)N2CCCC(C(F)(F)F)C2)oc2ccccc12` (centres undefined): 31.8 µg/mL (≈ 102 µM). `Cc1cccc(Nc2c([N+](=O)[O-])c(=O)oc3ccccc23)c1` had a kinetic solubility of less than 0.3 µg/mL.

In the case of `COc1cccc(C(=O)Nc2cccc(-c3ccccc3)c2)c1`, the kinetic solubility amounted to 2.5 µg/mL (≈ 8.24 µM). Regarding `Cc1[nH]c2ccccc2c1C(=O)C(=O)Nc1ccc2c(c1)OCCO2`, the kinetic solubility turned out to be 1.9 µg/mL (≈ 5.65 µM). The same measure for `CCOc1ccc(/C=C/c2nc(C#N)c(NCCCN(C)C)o2)cc1`: greater than 51.1 µg/mL. The same measure for `CC(=O)Nc1cccc(C(=O)N2CCN(S(=O)(=O)Cc3ccccc3)CC2)c1`: greater than 60.2 µg/mL; for `O=C(COC(=O)/C=C/c1cccc(F)c1)NC1CCCC1`: 7.8 µg/mL (≈ 26.8 µM); for `COc1ccc(NC(=O)CSc2nnc(N)s2)cc1S(=O)(=O)N1CCCCC1`: greater than 66.5 µg/mL. Next, `Cc1ccc2nc(C)c(C(=O)O)cc2c1`: greater than 30.2 µg/mL; `C1CNC(C23CC4CC(CC(C4)C2)C3)=N1`: greater than 30.6 µg/mL. `CN1CCN(c2ccc(C(F)(F)F)cc2N)CC1` displayed a kinetic solubility greater than 38.9 µg/mL. The same measure for `Cc1ccc(S(=O)(=O)N2CCN(c3ccccc3)CC2)c(C)c1`: 3 µg/mL (≈ 9.08 µM); for `O=C(NCc1ccccc1Cl)C1CCN(C(=O)c2ccco2)CC1`: greater than 52 µg/mL; for `Cc1cc(NC(=O)c2sc3ccccc3c2O)no1`: greater than 41.1 µg/mL.

`CN(C(=O)C1CCC1C(=O)O)c1nc(-c2ccc(Cl)s2)cs1` (centres undefined): the kinetic solubility is 42.6 µg/mL (≈ 119 µM).

`O=C1CN(S(=O)(=O)c2ccc([N+](=O)[O-])cc2)CC(=O)N1` registered a kinetic solubility greater than 44.9 µg/mL. `CCOc1ccc(N(C)Cc2cc(=O)oc3ccc(OC)cc23)cc1` gave a solubility (kinetic) of 8.1 µg/mL (≈ 23.9 µM).

In turn, `C=CCNC(=O)C1=NN(c2c(F)c(F)cc(F)c2F)C(=O)CC1` had a kinetic solubility greater than 49.4 µg/mL.

Turning to `COc1ccc(CN(C)CC(=O)Nc2cccc(S(=O)(=O)N3CCCC3)c2)cc1F`, the kinetic solubility was 44 µg/mL (≈ 101 µM). `O=C(NC1CCCc2ccccc21)c1ccccn1` (centres undefined): the kinetic solubility came to 35.9 µg/mL (≈ 142 µM). The solubility kinetic values of the last two compounds are within 1.5-fold of each other. The same measure for `CCc1ccc(S(=O)(=O)Nc2ccccn2)cc1`: greater than 39.3 µg/mL; for `CC(C)(C)NC(=O)COC(=O)c1ccc(Cl)nc1`: 36.4 µg/mL (≈ 134 µM). Next, `c1ccc(CSc2nc3ccccc3[nH]2)cc1`: 2.1 µg/mL (≈ 8.74 µM); `CCCCCCN1C=CC=C/C1=C\C=C(C#N)C#N`: 3.9 µg/mL (≈ 15.4 µM). The same measure for `Cc1nc(SCc2cccc(F)c2)c2oc3ccccc3c2n1`: less than 0.3 µg/mL; for `C(/C=C/c1ccccn1)=C\c1ccccc1`: 0.7 µg/mL (≈ 3.38 µM). `Cc1cc(SCc2ccccc2C)nc(=O)[nH]1` registered a solubility (kinetic) of 30.7 µg/mL (≈ 125 µM). Compared with the last compound, the solubility kinetic is about 44-fold higher. For the compound `COCCCN1CN=C(NS(=O)(=O)c2ccc(C)cc2)NC1`, the kinetic solubility is greater than 49 µg/mL. The same measure for `O=C(CCNC(=O)c1ccccc1Cl)NCc1ccco1`: greater than 46 µg/mL.

In the case of `O=C(CN1C(=O)C2C3CCC(C3)C2C1=O)OCC(=O)c1ccc(Br)cc1` (centres undefined), the kinetic solubility is greater than 63 µg/mL.

Turning to `C[C@@H]1CN(Cc2nc(-c3cnccn3)no2)C[C@H](C)O1`, the solubility (kinetic) turned out to be 30.8 µg/mL (≈ 112 µM). As to `O=C(O)CNC(=S)N(Cc1ccccc1Cl)C1CCCC1`, the solubility (kinetic) is greater than 49 µg/mL. Next, `Cc1ccc(NC(=O)CCCC(=O)OC(C)C(=O)c2ccccc2)cc1` (centres undefined): greater than 53 µg/mL; `CN(C)S(=O)(=O)c1cccc(NC(=O)Cc2ccsc2)c1`: greater than 48.7 µg/mL; `COc1cccc(-c2ccc3c(N)c(C(=O)NC4CC4)sc3n2)c1`: 15.1 µg/mL (≈ 44.5 µM). With `COc1cc(C(=O)OC(C)C(=O)Nc2ccc3c(c2)OCCO3)cc(OC)c1OC` (centres undefined), the solubility (kinetic) was determined as 7.2 µg/mL (≈ 17.2 µM).

Take `CCc1sc(C(=O)Nc2ccc3c(c2)OCO3)cc1C`: the solubility (kinetic) came to 4.9 µg/mL (≈ 16.9 µM). The same measure for `O=C(Nc1cc2c3c(c1)CC(=O)N3CCC2)c1c(F)cccc1F`: 9.6 µg/mL (≈ 29.2 µM); for `COc1cc(C(=O)Nc2ccc(C(=O)O)cc2)ccc1OC(C)=O`: greater than 49.4 µg/mL; for `CN(C)/C=C/C(=O)C(F)(F)F`: 17.9 µg/mL (≈ 107 µM). The same measure for `Cc1ccccc1C(=O)NC(=S)NC1CC1`: 16.3 µg/mL (≈ 69.6 µM); for `CN(C)c1ccc(/C=C/C#N)cc1`: 5.4 µg/mL (≈ 31.4 µM); for `COc1ccc(NC(=O)CCNC(=O)c2ccco2)c(OC)c1`: greater than 47.7 µg/mL. The same measure for `Cc1nc(-c2ccc(Cl)cc2)sc1C(=O)O`: 33.2 µg/mL (≈ 131 µM); for `Cc1ccc(S(=O)(=O)N(C)C)cc1NC(=O)c1cccs1`: 39.8 µg/mL (≈ 123 µM); for `O=C(NCC(O)c1ccccc1)c1cccs1` (centres undefined): greater than 37.1 µg/mL. The compound `O=C(COC(=O)c1cc(S(=O)(=O)Nc2ccccc2Cl)ccc1O)Nc1ccc(F)c(F)c1F` registered a kinetic solubility of 10 µg/mL (≈ 19.4 µM). The compound `COc1ccc(C)cc1S(=O)(=O)NCc1cccs1` had a solubility (kinetic) of 42.4 µg/mL (≈ 143 µM). The same measure for `CCOC(=O)c1cc(C)[nH]c1C`: 24.7 µg/mL (≈ 148 µM); for `CCOC(=O)C1CCN(C(=O)COC(=O)CSc2ccccc2C)CC1`: greater than 56.9 µg/mL; for `CCNC(=O)CN1C(=O)NC2(CCOc3ccccc32)C1=O` (centres undefined): greater than 45.5 µg/mL. The same measure for `Cc1cnc(NC(=O)c2ccccn2)s1`: 29.3 µg/mL (≈ 134 µM).

Consider `Cc1ccc(C)c(NC(=O)CN(C)C(C)C(=O)N2CC(C)CC(C)C2)c1` (centres undefined), for which the kinetic solubility is 47.9 µg/mL (≈ 133 µM). The same measure for `O=C(Nc1ccccn1)c1sc2cccc(F)c2c1Cl`: less than 0.3 µg/mL.
